Some test systems named below: 786-0; A549; CAKI-1; CCRF-CEM; HCT-116; HOP-92; Hs-578T; IGROV-1; MDA-N; NCI/ADR-RES; OVCAR-3; OVCAR-8; PC-3; SF-295; SF-539; SK-MEL-5; SN12C; UACC-257; UACC-62; HL-60.
Common to all, as to test: DTP human tumour cell line panel, 48 h

Values joined by “and” are separate entries in the source; they are usually repeats but may differ in a detail not shown here. Equal entries are not always repeated.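 Grown in 96-well plates, cells were treated for 48 hours with each compound at five concentrations. Insufficient inhibition: endpoint recorded as highest concentration tested. GI50: concentration for 50% inhibition of growth.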 Active and inactive are the calls of the source. Cut-off read from the data, not from the text of the source: active = GI50 up to about 1.1 µM and inactive = higher.

Regarding `NCCSCCC(=O)O`, the GI50 (as a rule, the concentration giving 50% growth inhibition) with 786-0 is > 38.1 µM (inactive); with A549, > 69.2 µM (inactive); with CAKI-1, > 59.2 µM (inactive); in the experiment on CCRF-CEM it was 23 µM (inactive); in the experiment on HCT-116, > 56.6 µM (inactive); with HOP-92, > 100 µM (inactive). The GI50 is > 100 µM (inactive) in the experiment on Hs-578T; > 100 µM (inactive) in the experiment with IGROV-1; > 81.7 µM (inactive) with MDA-N; > 69.8 µM (inactive) with NCI/ADR-RES; > 100 µM (inactive) in the experiment with OVCAR-3; > 84.3 µM (inactive) in the experiment on OVCAR-8. In addition, the GI50 with PC-3 is > 82 µM (inactive); in the experiment on SF-295, > 48.4 µM (inactive); in the experiment on SF-539, 21.9 µM (inactive); in the experiment on SK-MEL-5, 39.9 µM (inactive); in the experiment on SN12C, > 43.1 µM (inactive); in the experiment on UACC-257, > 59 µM (inactive). The GI50 with UACC-62 is > 45.4 µM (inactive).
For `COCN1C(=O)[C@@H]2C[C@@H](O)CN2C(=O)c2ccccc21`, the GI50 was > 100 µM (inactive) in the experiment on 786-0; > 100 µM (inactive) in the experiment on A549; > 100 µM (inactive) with CAKI-1; > 100 µM (inactive) with CCRF-CEM; > 100 µM (inactive) in the experiment with HCT-116; 60.5 µM (inactive) in the experiment on HL-60. The GI50 in the experiment on HOP-92, in the experiment with Hs-578T, with IGROV-1, in the experiment on MDA-N, in the experiment on NCI/ADR-RES and with OVCAR-8 was > 100 µM (inactive) in each case. Moreover, the GI50 in the experiment on PC-3, in the experiment with SF-295, in the experiment with SK-MEL-5, in the experiment on SN12C, with UACC-257 and in the experiment on UACC-62 was > 100 µM (inactive) in each case.
Regarding `CCOP(=O)(OCC)C(C)(CC)NC(=O)C(C(F)(F)F)C(F)(F)F` (stereo not given), the GI50 was 40.4 µM (inactive) and 61.5 µM (inactive) with 786-0; > 100 µM (inactive) in the experiment with A549; > 100 µM (inactive) in the experiment on CAKI-1; 22 µM (inactive) and 21.9 µM (inactive) in the experiment with CCRF-CEM; > 100 µM (inactive) with HCT-116; > 57 µM (inactive) with HOP-92. The GI50 in the experiment with Hs-578T, with IGROV-1, with MDA-N, in the experiment on NCI/ADR-RES, in the experiment with OVCAR-3 and in the experiment with OVCAR-8 was > 100 µM (inactive) each time. Moreover, the GI50 with PC-3, with SF-295, in the experiment on SK-MEL-5, in the experiment with SN12C and in the experiment on UACC-257 was > 100 µM (inactive) each time.
Regarding `CNC(=O)OC1/C(C)=C\C(C)C(O)C(OC)CC(C)CC2=C(OC)C(=O)C=C(C2=O)N(C)C(=O)/C(C)=C/C=C\C1OC` (stereo not given), the GI50 with 786-0 is 4.31 µM (inactive); with A549, 14.3 µM (inactive); with CAKI-1, 7.4 µM (inactive); in the experiment with CCRF-CEM, 0.938 µM (active); in the experiment with HCT-116 it was 8.05 µM (inactive); with HOP-92, 2.8 µM (inactive). For the same molecule, the GI50 in the experiment on Hs-578T was 4.03 µM (inactive); with IGROV-1 it was 10.8 µM (inactive); in the experiment with MDA-N, 1.33 µM (inactive); in the experiment on NCI/ADR-RES it was 20 µM (inactive); in the experiment on OVCAR-3, 3.8 µM (inactive); in the experiment with OVCAR-8 it was 7.38 µM (inactive). Also, the GI50 in the experiment on PC-3 is 11.5 µM (inactive); in the experiment on SF-295, 24.4 µM (inactive); in the experiment on SF-539, 8.32 µM (inactive); in the experiment with SK-MEL-5, 7.64 µM (inactive); in the experiment on SN12C it was 3.62 µM (inactive); in the experiment with UACC-257, 5.02 µM (inactive). For the same molecule, the GI50 in the experiment on UACC-62 is 3.84 µM (inactive).
Regarding `O=c1[nH]nc(Cc2ccccc2)n1/N=C/c1c(O)ccc2ccccc12`, the GI50 with 786-0 is 16.7 µM (inactive); with A549, 32 µM (inactive); with CAKI-1, 28.2 µM (inactive); in the experiment on CCRF-CEM, 43.6 µM (inactive); in the experiment on HCT-116, 20.2 µM (inactive); in the experiment with HOP-92, 19.2 µM (inactive). Further, the GI50 with Hs-578T was 19.4 µM (inactive); with IGROV-1, 21.2 µM (inactive); in the experiment on MDA-N, 54.6 µM (inactive); in the experiment on NCI/ADR-RES, 20.1 µM (inactive); in the experiment on OVCAR-3 it was 17.1 µM (inactive); in the experiment with OVCAR-8 it was 21 µM (inactive). The GI50 was 22.9 µM (inactive) in the experiment on PC-3; 26.9 µM (inactive) with SF-295; 19.8 µM (inactive) in the experiment on SF-539; 18.6 µM (inactive) in the experiment on SK-MEL-5; 41.1 µM (inactive) in the experiment with SN12C; 35.3 µM (inactive) in the experiment with UACC-257. The GI50 in the experiment on UACC-62 is 29.2 µM (inactive).
`Cc1ccc(S(=O)(=O)N2CCCCN(S(=O)(=O)c3ccc(C)cc3)Cc3ccccc3OCCOCCOc3c4cccc3Cc3cccc5c3OCCOCCOc3ccccc3CN(S(=O)(=O)c3ccc(C)cc3)CCCN(S(=O)(=O)c3ccc(C)cc3)Cc3ccccc3OCCOCCOc3c(cccc3C4)Cc3cccc(c3OCCOCCOc3ccccc3C2)C5)cc1`: the GI50 in the experiment with 786-0, in the experiment with A549, in the experiment with CAKI-1, with CCRF-CEM, in the experiment with HCT-116 and in the experiment with HOP-92 was > 100 µM (inactive) throughout. The GI50 in the experiment with Hs-578T, in the experiment on IGROV-1, in the experiment on MDA-N, with NCI/ADR-RES, with OVCAR-3 and with OVCAR-8 was > 100 µM (inactive) each time. The GI50 with PC-3, in the experiment on SF-295, in the experiment on SF-539, in the experiment with SK-MEL-5, in the experiment with SN12C and with UACC-257 was > 100 µM (inactive) in each case. Moreover, the GI50 in the experiment with UACC-62 was > 100 µM (inactive).
Turning to `CC(C)(C)OC(=O)C1CCC/C1=N/Nc1ccc([N+](=O)[O-])cc1[N+](=O)[O-]` (stereo not given), the GI50 with 786-0 was 23 µM (inactive); with A549, 31.9 µM (inactive); in the experiment on CAKI-1 it was 39.4 µM (inactive); in the experiment on CCRF-CEM, 19.7 µM (inactive); in the experiment on HCT-116, 21.4 µM (inactive); in the experiment on HL-60, 44.3 µM (inactive). The GI50 in the experiment on HOP-92 is 47.1 µM (inactive); with Hs-578T, 48.2 µM (inactive); in the experiment on IGROV-1, 25.5 µM (inactive); in the experiment with MDA-N, 30.8 µM (inactive); in the experiment on NCI/ADR-RES, 26.1 µM (inactive); with OVCAR-3, 46.6 µM (inactive). Further, the GI50 with OVCAR-8 was 27.5 µM (inactive); in the experiment with PC-3 it was 10.3 µM (inactive); in the experiment on SF-295, 25 µM (inactive); with SK-MEL-5 it was 13.9 µM (inactive); with SN12C, 40.7 µM (inactive); with UACC-62, 26.9 µM (inactive).
As to `Clc1ccc(OCc2nnc3sc(-c4ccc(-c5ccc(Cl)cc5Cl)o4)nn23)cc1`, the GI50 with 786-0, in the experiment with A549, in the experiment with CAKI-1, in the experiment on CCRF-CEM, in the experiment with HCT-116 and in the experiment on HL-60 was > 100 µM (inactive) in each case. For the same molecule, the GI50 is 36.9 µM (inactive) with HOP-92; > 100 µM (inactive) in the experiment on Hs-578T; > 100 µM (inactive) in the experiment on IGROV-1; > 100 µM (inactive) with MDA-N; > 100 µM (inactive) in the experiment on NCI/ADR-RES; > 100 µM (inactive) with OVCAR-3. For the same molecule, the GI50 was > 100 µM (inactive) with OVCAR-8; > 100 µM (inactive) with PC-3; 89.1 µM (inactive) in the experiment with SF-295; > 100 µM (inactive) in the experiment on SK-MEL-5; > 100 µM (inactive) in the experiment on SN12C; > 100 µM (inactive) in the experiment on UACC-257.
As to `C=C(CO)[C@H]1CC/C(C)=C/CC/C(C)=C/C/C=C(\C)[C@H](O)C1`, the GI50 is 17.3 µM (inactive) with 786-0; 42 µM (inactive) in the experiment on A549; 31.3 µM (inactive) in the experiment on CAKI-1; > 100 µM (inactive) in the experiment with CCRF-CEM; 26.9 µM (inactive) with HCT-116; 19.8 µM (inactive) in the experiment with HOP-92. Moreover, the GI50 in the experiment on Hs-578T was 25.5 µM (inactive); in the experiment with IGROV-1, 17.8 µM (inactive); with MDA-N, 34.5 µM (inactive); in the experiment on NCI/ADR-RES, 27.3 µM (inactive); in the experiment on OVCAR-3, 33.7 µM (inactive); with OVCAR-8 it was 17.8 µM (inactive). Moreover, the GI50 was 41.8 µM (inactive) in the experiment on PC-3; 34.8 µM (inactive) with SF-295; 23.5 µM (inactive) in the experiment with SF-539; 18.9 µM (inactive) in the experiment on SK-MEL-5; 33.3 µM (inactive) in the experiment with SN12C; 19.7 µM (inactive) in the experiment with UACC-257. Besides, the GI50 in the experiment with UACC-62 is 23 µM (inactive).
For `Cc1oc2c(c1C)S(=O)(=O)C(C#N)C(c1ccccc1)N2` (stereo not given), the GI50 in the experiment with 786-0 is 40.9 µM (inactive); with A549, 44.7 µM (inactive); with CAKI-1, 36.1 µM (inactive); in the experiment with CCRF-CEM, 20.4 µM (inactive); with HCT-116 it was 50 µM (inactive); in the experiment on HOP-92 it was 64.6 µM (inactive). The GI50 in the experiment with Hs-578T was 30.9 µM (inactive); in the experiment on IGROV-1, > 100 µM (inactive); with MDA-N, 29 µM (inactive); in the experiment with NCI/ADR-RES, 30.8 µM (inactive); in the experiment with OVCAR-3 it was 65.6 µM (inactive); with OVCAR-8, 40.4 µM (inactive). Also, the GI50 with PC-3 is 66.5 µM (inactive); with SF-295 it was 78.9 µM (inactive); in the experiment on SF-539 it was 39.6 µM (inactive); in the experiment on SK-MEL-5 it was 32.4 µM (inactive); with SN12C, 49.8 µM (inactive); with UACC-257 it was 56.6 µM (inactive). Also, in the experiment with UACC-62, the GI50 was 41.4 µM (inactive).

(Values after ChEMBL document CHEMBL1201862, “PubChem BioAssay data set” (2004).)
